Test results published in US5112519A, “Process for production of biodegradable surfactants and compositions thereof” (Mobil Oil Corporation, priority 1989, dated 1992).

Assays:
[1] = Soil removal, phosphorous built industrial liquid laundry detergent, carbon black/oil; details: 130° F.
Source text: (§1) In contrast, the three industrial detergents contained a high performance builder package, and dodecylbenzenesulfonic acid sodium salt. Two of the three also contain an AE, either tridecanol-9-mole-ethoxylate or C12-15 -alcohol-9 mole-ethoxylate. Many commercial detergents use combinations of LABS and AE's to balance performance and cost. LABS remove particulates well and lower overall surfactant cost while AE's effectively remove oily soils. The surfactant concentrations in all three are equal (i.e., the detergent without AE had more LABS) excepting the detergent using Mobil's AE. Its concentration is not increased to offset a contaminant, 7 wt % polyethylene glycol. The builder in all three detergents contained tetrapotassium pyrophosphate, sodium metasilicate, potassium hydroxide, and carboxymethylcellulose.
(§2) Testing Methods. This study uses two artificial soils on three test fabrics. Carbon black in an oil matrix simulates particulate soil, and sebum/dust simulates oily soil. Test Fabrics Inc. (Middlesex, N.J.) prints these soils on 100% cotton, 65/35 polyester/cotton with permanent press finish, and 100% polyester fabrics.
(§3) U.S. Testing Company did the fabric washing and drying under carefully controlled conditions. A Terg-O-Tometer washes using a 15 minute wash time. Conditions are 100 rpm agitation speed, 130° F. for the industrial detergents and 100° F. for the household detergents. They made wash and rinse water to 150 ppm hardness (U.S. national average), and washes six 3×4 inch test swatches per liter of solution. They rinse each load twice for five minutes. After washing and rinsing, the swatches are dried in an electric dryer, and ironed with a warm iron to remove wrinkles. All samples are run in triplicate.
(§4) White light reflectance, taken before and after washing, measures soil removal. A green filter cut out the effect of artificial brighteners. They measure soil redoposition by taking reflectance readings of fabric margins (areas not printed with soil) before and after washing. […]

[2] = Soil removal, unbuilt household liquid laundry detergent, sebum/dust; details: 100° F.
Source text: (§5) Applicants blend three unbuilt household detergents differing only in the surfactant. Either Mobil's tridecanol-9 mole-ethoxylate, Shell's C12-15 -alcohol-9 mole-ethoxylate, or Vista's dodecylbenzenesulfonic acid sodium salt are used. All contain triethanolamine to make the wash liquor basic. This type formulation magnifies surfactant differences because it lacks a builder to extend the surfactant and soften hard water.
as §2, §3
(§6) White light reflectance, taken before and after washing, measures soil removal. A green filter cut out the effect of artificial brighteners. They measure soil redoposition by taking reflectance readings of fabric margins (areas not printed with soil) before and after washing. […] However, the reflectance technique more closely measures soil removal from the fabric surface, what the consumer sees.

[3] = Soil removal, phosphorous built industrial liquid laundry detergent, sebum/dust; details: 130° F.
Source text: as §1, §2, §3, §4

[4] = Soil removal, unbuilt household liquid laundry detergent, carbon black/oil; details: 100° F.
Source text: as §5, §2, §3, §6

**Q.** With “dodecylbenzenesulfonic acid sodium salt [Vista LABS]” as the substance, how does the “Percent Soil Removal” value ([1]; Cotton) read?
**A.** 52%

**Q.** And the “Percent Soil Removal” value ([1]; Polyester)?
**A.** 29%

**Q.** What about the “Percent Soil Removal” value ([1]; Polyester/Cotton) of the same substance?
**A.** 34%

**Q.** What about the “Percent Soil Removal” value ([2]; Cotton) of the same substance?
**A.** 36%

**Q.** What about the “Percent Soil Removal” value ([2]; Polyester) of the same substance?
**A.** 19%

**Q.** And the “Percent Soil Removal” value ([2]; Polyester/Cotton)?
**A.** 45%

**Q.** What about the “Percent Soil Removal” value ([3]; Cotton) of the same substance?
**A.** 60%

**Q.** What about the “Percent Soil Removal” value ([3]; Polyester) of the same substance?
**A.** 39%

**Q.** What about the “Percent Soil Removal” value ([3]; Polyester/Cotton) of the same substance?
**A.** 82%

**Q.** What about the “Percent Soil Removal” value ([4]; Cotton) of the same substance?
**A.** 36%

**Q.** What about the “Percent Soil Removal” value ([4]; Polyester) of the same substance?
**A.** 40%

**Q.** And the “Percent Soil Removal” value ([4]; Polyester/Cotton)?
**A.** 31%
